Our source for the EC50 and IC50 values is patent publication US20260364080A1, “PYRAZOLO-PYRIMIDINONE COMPOUNDS FOR USE IN METHODS OF INHIBITING WEE1 A KINASE” (Acrivon Therapeutics, Inc., priority 2023, published 2026).

As usually defined, the EC50 is the concentration at which the effect is half-maximal. Usually IC50 stands for the concentration needed to halve the response being measured.

One assay relates to ACHN cells. In words: Cell Titer Glo viability assay, ACHN cells. It is filed as cell-based. Particulars: Homo sapiens, 144 h, absolute EC50. In a few lines:
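Cells grown in MEM with 10% FCS were seeded at 500 (A427), 400 (ACHN) or 250 (DAOY) per well and treated the next day with compound at 17 to 10 000 nM. Viability relative to untreated control was read at 144 h by CellTiter-Glo 2.0.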
For orientation: In ATP-based viability assays light output follows the ATP content of the culture.

In assay [1] the target is T1, Wee1A kinase (CDK1 Tyr15 phosphorylation in ACHN renal cell carcinoma cells) (Homo sapiens, UniProt P30291).
T1 construct: pCDK1 Tyr15 immunofluorescence read-out
T1 sequence (P30291 whole entry): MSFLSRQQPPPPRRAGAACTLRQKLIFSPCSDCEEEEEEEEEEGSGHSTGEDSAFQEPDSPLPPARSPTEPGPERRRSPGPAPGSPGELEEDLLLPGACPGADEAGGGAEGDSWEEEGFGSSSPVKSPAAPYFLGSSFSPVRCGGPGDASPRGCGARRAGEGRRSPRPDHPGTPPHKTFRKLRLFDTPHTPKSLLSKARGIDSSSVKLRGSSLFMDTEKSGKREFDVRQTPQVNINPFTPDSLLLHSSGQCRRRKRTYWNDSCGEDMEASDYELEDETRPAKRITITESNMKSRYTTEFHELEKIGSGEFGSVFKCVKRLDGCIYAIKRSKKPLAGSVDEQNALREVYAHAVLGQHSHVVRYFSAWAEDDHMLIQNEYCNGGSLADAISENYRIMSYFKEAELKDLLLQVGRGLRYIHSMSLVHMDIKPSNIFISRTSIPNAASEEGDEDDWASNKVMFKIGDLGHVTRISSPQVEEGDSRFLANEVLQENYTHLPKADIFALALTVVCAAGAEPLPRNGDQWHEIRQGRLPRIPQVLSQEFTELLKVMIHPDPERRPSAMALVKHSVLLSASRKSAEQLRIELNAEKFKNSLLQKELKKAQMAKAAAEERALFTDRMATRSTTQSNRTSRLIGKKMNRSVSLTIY
The assay is described as follows: High-content imaging of pCdk1 Y15, Wee1A kinase target engagement in ACHN cells. In kind it is cell-based. To be noted: 4 h treatment, nuclear positivity for pCdk1 Y15 vs DMSO control, read-out: CDK1 Tyr15 Phosphorylation EC50. In a few lines:
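ACHN cells exposed to compound for 4 h over 7–5,000 nM or 0.3–200 nM, then fixed and immunostained for pCDK1 Y15 with DAPI nuclear counterstain. The percentage of pCdk1 Y15 nucleus-positive cells relative to DMSO control was imaged per well; EC50 from dose-response curves.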

Assay [2] has as its target T2, Myt1 kinase (recombinant PMYT-1) (Homo sapiens, UniProt Q99640).
T2 construct: full length PMYT-1 was expressed by baculovirus in insect cells; purchased Invitrogen A30984; host or cells: insect cells (baculovirus)
T2 sequence (Q99640 1-499): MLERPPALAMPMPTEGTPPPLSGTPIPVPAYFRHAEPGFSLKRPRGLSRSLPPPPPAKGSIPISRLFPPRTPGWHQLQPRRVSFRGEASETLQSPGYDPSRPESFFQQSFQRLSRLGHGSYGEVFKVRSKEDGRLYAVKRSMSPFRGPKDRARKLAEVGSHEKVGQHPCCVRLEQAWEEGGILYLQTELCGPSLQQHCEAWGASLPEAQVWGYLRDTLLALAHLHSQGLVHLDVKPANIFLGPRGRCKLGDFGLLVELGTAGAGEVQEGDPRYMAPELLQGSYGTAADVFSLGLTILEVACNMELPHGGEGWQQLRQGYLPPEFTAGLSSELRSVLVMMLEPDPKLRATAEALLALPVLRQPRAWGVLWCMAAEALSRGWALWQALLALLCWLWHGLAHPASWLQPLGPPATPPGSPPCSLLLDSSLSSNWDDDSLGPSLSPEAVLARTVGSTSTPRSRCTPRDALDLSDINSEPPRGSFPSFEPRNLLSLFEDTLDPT
In words: Myt1 kinase binding assay (LanthaScreen Eu Kinase Binding Assay). To be noted: 3 nM tracer 178, 2.5 nM PMYT-1, 1 nM Eu-labeled antibody; read-out: Myt1 kinase Binding IC50. A digest of the protocol: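 The binding affinity of compounds for Myt1 kinase was measured with a LanthaScreen Europium (Eu) Kinase Binding Assay, a time-resolved FRET format in which test compounds compete against a labeled kinase tracer, and the results were expressed as IC50 values describing compound binding to Myt1.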
(In general: In TR-FRET formats the signal depends on donor and acceptor labels being close together.)

For another assay, the system named is DAOY cells. The assay is described as follows: Cell Titer Glo viability assay, DAOY cells. In kind it is cell-based. To be noted: Homo sapiens, 144 h, absolute EC50. The protocol: Each of an ACHN renal cell carcinoma cell line (ATCC) and a DAOY medulloblastoma cell line, and an A427 lung cancer line were cultured in Minimum Essential Medium Eagle supplemented with 10% fetal calf serum (Sigma), 1% Penicillin-Streptomycin and 10 mM HEPES buffer (HyClone). Cell cultures were kept in a humidified incubator at 37 °C and 5% CO2. Cells were routinely tested for Mycoplasma contamination.
ACHN cells, DAOY cells, or A427 cells were seeded at a density of 400, 250, or 500 cells per well respectively, in tissue culture treated 384 well plates (Corning Costar). After overnight incubation, cells were treated with drugs at concentrations ranging from 17 to 10 000 nM. Viability compared to untreated control was assessed at 144 h using Cell Titer Glo assay 2.0 (Promega). […] “NT” means the compounds was not tested in the indicated cells.

For assay [3], the target named is T3, Myt1 kinase (CDK1 Thr14 phosphorylation in DAOY medulloblastoma cells) (Homo sapiens, UniProt Q99640).
T3 construct: pCDK1 Thr14 AlphaLISA read-out
T3 sequence (Q99640 1-499): T2 sequence (Q99640 1-499)
The assay is described as follows: AlphaLISA assay, Myt1 kinase target engagement (phospho-CDK1 Thr14) in DAOY cells. In kind it is cell-based. Particulars: 4 h treatment, read-out: CDK1 Thr14 Phosphorylation EC50. A digest of the protocol:
(§1)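 Cells seeded at 10,000 (DAOY) or 20,000 (ACHN) per well, treated 24 h later for 4 h with compound at 7–5000 nM. Lysates analysed by AlphaLISA SureFire Ultra phospho-CDK1 (Thr14) with donor/acceptor beads; EC50 from dose-response curves.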

Assay [4] addresses T4, recombinant human Wee1A kinase (Homo sapiens, UniProt P30291).
T4 construct: full length Wee1 kinase was expressed by baculovirus in insect cells; purchased Invitrogen PV3817; host or cells: insect cells (baculovirus)
The assay is described as follows: Wee1A kinase binding assay (LanthaScreen Eu time-resolved FRET). To be noted: 30 nM tracer 178, 5 nM Wee1A kinase, 2 nM Eu-labeled antibody; 60 minutes at room temperature; read-out: Wee1A kinase Binding IC50. A digest of the protocol: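 Full-length, baculovirus-expressed GST-tagged Wee1A (5 nM) was mixed with 2 nM Eu-anti-GST antibody, 30 nM kinase tracer 178 and compound (1% DMSO). Buffer was 50 mM HEPES pH 7.5, 10 mM MgCl2, 1 mM EGTA, 0.01% Brij-35, incubated 60 min at room temperature. TR-FRET 665/615 nm emission ratios from duplicates were curve-fitted.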

Assay [5] deals with T5, Myt1 kinase (CDK1 Thr14 phosphorylation in ACHN renal cell carcinoma cells) (Homo sapiens, UniProt Q99640).
T5 construct: pCDK1 Thr14 AlphaLISA read-out
T5 sequence (Q99640 1-499): T2 sequence (Q99640 1-499)
The assay is described as follows: AlphaLISA assay, Myt1 kinase target engagement (phospho-CDK1 Thr14) in ACHN cells. It is filed as cell-based. Particulars: ACHN cells (marked *); 4 h treatment. A digest of the protocol: as §1
On the technique in general: Alpha assays give light when donor and acceptor beads are brought close together.

SMILES strings stand for the structures.

T4 sequence (P30291 whole entry): as the sequence (P30291 whole entry) above

As to `C=CCn1c(=O)c2cnc(Nc3ccc(C)nc3)nc2n1-c1cccc(OC2CCN(C)CC2)n1` [Compound 197, 2-allyl-1-[6-(1-methyl-4-piperidyloxy)-2-pyridyl]-6-(6-methyl-3-pyridylamino)-1,2-dihydro-3H-1,2,5,7-tetraazainden-3-one], the EC50 with ACHN cells is not above 100 nM; in assay [1], less than 100 nM; with DAOY cells, not above 100 nM; in assay [3], 500 to 1000 nM. In addition, the IC50 was 20 to 100 nM in assay [2] and less than 10 nM in assay [4].
`C=CCn1c(=O)c2cnc(Nc3ccnc(C)c3)nc2n1-c1cccc(OC2CCN(C)CC2)n1` [Compound 112, 1-{6-[(1-methylpiperidin-4-yl)oxy]pyridin-2-yl}-6-[(2-methylpyridin-4-yl)amino]-2-(prop-2-en-1-yl)-1H,2H,3H-pyrazolo[3,4-d]pyrimidin-3-one]: the EC50 was not above 100 nM in the assay with ACHN cells, less than 100 nM in assay [1], 100 to 500 nM with DAOY cells and 200 to 500 nM in assay [3]. Besides, the IC50 is 20 to 100 nM in assay [2] and less than 10 nM in assay [4].
As for `C=CCn1c(=O)c2cnc(Nc3cc(C)cc(F)c3)nc2n1-c1cccc(OC2CCN(C)CC2)n1` [Compound 205, 6-[(3-fluoro-5-methylphenyl)amino]-1-{6-[(1-methylpiperidin-4-yl)oxy]pyridin-2-yl}-2-(prop-2-en-1-yl)-1H,2H,3H-pyrazolo[3,4-d]pyrimidin-3-one], the 50% effective concentration (EC50) is not above 100 nM with ACHN cells, less than 100 nM in assay [1], 100 to 500 nM in the assay on DAOY cells and 200 to 500 nM in assay [3]. The IC50 was 20 to 100 nM in assay [2] and less than 10 nM in assay [4].
On to `C=CCn1c(=O)c2cnc(Nc3ccc4ncsc4c3)nc2n1-c1cccc(OC2CCN(C)CC2)n1` [Compound 303, 2-allyl-6-(1,3-benzothiazol-6-ylamino)-1-[6-(1-methyl-4-piperidyloxy)-2-pyridyl]-1,2-dihydro-3H-1,2,5,7-tetraazainden-3-one], for which the EC50 in the assay with ACHN cells was not above 100 nM; in assay [1], less than 100 nM; in the assay on DAOY cells it was 100 to 500 nM; in assay [3], 200 to 500 nM. Besides, the IC50 in assay [2] is less than 20 nM; in assay [4], less than 10 nM.
On to `C=CCn1c(=O)c2cnc(Nc3ccc4c(cnn4C)c3)nc2n1-c1cccc(O[C@@H]2CCN(C)[C@@H](C)C2)n1` (stereo in doubt) [Compound 403, rel-2-allyl-1-(6-(((2R,4S)-1,2-dimethylpiperidin-4-yl)oxy)pyridin-2-yl)-6-((1-methyl-1H-indazol-5-yl)amino)-1,2-dihydro-3H-pyrazolo[3,4-d]pyrimidin-3-one], for which the EC50 in the assay on ACHN cells was not above 100 nM; in assay [1], less than 100 nM; in assay [5] it was less than 200 nM. Moreover, the IC50 in assay [2] is 20 to 100 nM; in assay [4], less than 10 nM.
For `[2H]C([2H])([2H])c1cccc(Nc2ncc3c(=O)n(CC=C)n(-c4cccc(OC5CCN(C)CC5)n4)c3n2)c1` [Compound 333, 2-allyl-6-((3-(methyl-d3)phenyl)amino)-1-(6-((1-methylpiperidin-4-yl)oxy)pyridin-2-yl)-1,2-dihydro-3H-pyrazolo[3,4-d]pyrimidin-3-one], the figures for the EC50 (in the assay with ACHN cells; in assay [1]; in assay [5]) were not above 100 nM, less than 100 nM and 200 to 500 nM, respectively. The IC50 in assay [2] was 20 to 100 nM; in assay [4] it was less than 10 nM.
In the case of `CN1CCC(Oc2cccc(-n3c4nc(Nc5ccc6c(ccn6C)c5)ncc4c(=O)n3C)n2)CC1` [Compound 360, 2-methyl-6-((1-methyl-1H-indol-5-yl)amino)-1-(6-((1-methylpiperidin-4-yl)oxy)pyridin-2-yl)-1,2-dihydro-3H-pyrazolo[3,4-d]pyrimidin-3-one], the EC50 was not above 100 nM with ACHN cells, less than 100 nM in assay [1] and 500 to 1000 nM in assay [5]. Also, the figures for the IC50 in assay [2] and in assay [4] were 20 to 100 nM and less than 10 nM, respectively.
